Measured values published in patent publication US20200121652A1, “COMPOUNDS HAVING CASPASE INHIBITORY ACTIVITY, PHARMACEUTICAL AGENT CONTAINING SAID COMPOUNDS AND FOR TREATING OR PREVENTING CORNEAL ENDOTHELIAL SYMPTOMS, DISORDERS, OR DISEASES, AND APPLICATION OF SAID PHARMACEUTICAL AGENT” (The Doshisha, priority 2017, published 2020).
Structures can show the parent of a compound that is named as a salt.

Tested on: immortalized Fuchs' endothelial corneal dystrophy cells
Experiment: Concentration-dependent caspase 3/7 activity under TGF-β2 stimulation (Example 3)
Type: cell-based
Conditions: Homo sapiens, TGF-β2 10 ng/mL, 28 hours; for activity at 0.1 µM: agent 100 nM; for activity at 1 µM: agent 1 μM; for activity at 10 µM: agent 10 μM; for activity at 0.01 µM: agent 10 nM; for activity at 0.001 µM: agent 1 nM
Protocol: 7×10^3 immortalized Fuchs' endothelial corneal dystrophy cells were seeded on a 96-well plate and were cultured for 24 hours under the condition of 5% CO2 at 37° C.
After 28 hours under the condition of 5% CO2 at 37° C., cell morphology was observed using a phase difference microscope. Caspase 3/7 activity was then measured using Caspase-Glo 3/7 Assay (Promega, #G8091). DMEM+2% FBS+1% P/S was used as the medium. Caspase 3/7 activity and cell viability in this example were measured using GloMax-Multi Detection System (Promega, E7051).
Caspase 3/7 activity below 80% was used as a indicator indicating whether an agent can be used for treating or preventing a corneal endothelial condition, disorder, or disease, or whether an agent can be used as a caspase inhibitor (the underlines in FIG. 4A-1, FIG. 4A-2 and FIG. 4A-3, and FIG. 4B-1, FIG. 4B-2 and FIG. 4B-3).

SMILES | activity at 0.1 µM [%] | activity at 1 µM [%] | activity at 10 µM [%] | activity at 0.01 µM [%] | activity at 0.001 µM [%] | activity at 10 pM (agent 10 pM) [%] | activity at 1 pM (agent 1 pM) [%]
C[C@H]1C[C@@H]2[C@H]([C@@H](O)C[C@@]3(C)[C@H]2CC[C@]3(O)C(=O)CO)[C@@]2(C)C=CC(=O)C=C12 [Methylprednisolone] | ≤ 80 | ≤ 80 | ≤ 80 |  |  |  | 
CC1(C)O[C@@H]2C[C@H]3[C@@H]4CCC5=CC(=O)C=C[C@]5(C)[C@H]4[C@@H](O)C[C@]3(C)[C@]2(C(=O)CO)O1 [Desonide] | ≤ 80 | ≤ 80 | ≤ 80 |  |  |  | 
CC1(C)O[C@@H]2C[C@H]3[C@@H]4CCC5=CC(=O)C=C[C@]5(C)[C@@]4(F)[C@@H](O)C[C@]3(C)[C@]2(C(=O)CO)O1 [Triamcinolone Acetonide] | ≤ 80 | ≤ 80 | ≤ 80 | ≤ 80 |  |  | 
COC(=O)C1=C(C)NC(C)=C(C(=O)OCC(C)C)C1c1ccccc1[N+](=O)[O-] (centres unmarked) [Nisoldipine] |  |  | ≤ 80 |  |  |  | 
C[C@]12C=CC(=O)C=C1CC[C@@H]1[C@@H]2[C@@H](O)C[C@@]2(C)[C@H]1CC[C@]2(O)C(=O)CO [Prednisolone] | ≤ 80 | ≤ 80 | ≤ 80 |  |  |  | 
CC(=O)Oc1ccccc1C(=O)Nc1ncc([N+](=O)[O-])s1 [Nitazoxanide] |  |  | ≤ 80 |  |  |  | 
C=C1/C(=C\C=C2/CCC[C@]3(C)[C@@H]([C@H](C)CCCC(C)(C)O)CC[C@@H]23)C[C@@H](O)C[C@@H]1O [Calcitriol] |  |  | ≤ 80 |  |  |  | 
CC(C)C[C@H]1C(=O)N2CCC[C@H]2[C@]2(O)O[C@](NC(=O)[C@@H]3C=C4c5cccc6[nH]c(Br)c(c56)C[C@H]4N(C)C3)(C(C)C)C(=O)N12 [Bromocriptine Mesylate] |  |  | ≤ 80 |  |  |  | 
CCCC(=O)O[C@]1(C(=O)COC(C)=O)CC[C@H]2[C@@H]3C[C@H](F)C4=CC(=O)C=C[C@]4(C)[C@@]3(F)[C@@H](O)C[C@@]21C [Difluprednate] | ≤ 80 | ≤ 80 | ≤ 80 | ≤ 80 | ≤ 80 |  | 
CC1(C)O[C@@H]2C[C@H]3[C@@H]4C[C@H](F)C5=CC(=O)CC[C@]5(C)[C@H]4[C@@H](O)C[C@]3(C)[C@]2(C(=O)CO)O1 [Flurandrenolide] | ≤ 80 | ≤ 80 | ≤ 80 | ≤ 80 |  |  | 
CCc1nc(N)nc(N)c1-c1ccc(Cl)cc1 [Pyrimethamine] |  |  | ≤ 80 |  |  |  | 
COc1ccccc1OCCNCC(O)COc1cccc2[nH]c3ccccc3c12 (centres unmarked) [Carvedilol] |  |  | ≤ 80 |  |  |  | 
CC(=O)OCC(=O)[C@@]1(O)CC[C@H]2[C@@H]3CCC4=CC(=O)CC[C@]4(C)[C@@]3(F)[C@@H](O)C[C@@]21C [Fludrocortisone Acetate] | ≤ 80 | ≤ 80 | ≤ 80 |  |  |  | 
CO[C@H]1C[C@@H]2CC[C@@H](C)[C@@](O)(O2)C(=O)C(=O)N2CCCC[C@H]2C(=O)O[C@H]([C@H](C)C[C@@H]2CC[C@@H](OCCO)[C@H](OC)C2)CC(=O)[C@H](C)/C=C(\C)[C@@H](O)[C@@H](OC)C(=O)[C@H](C)C[C@H](C)/C=C/C=C/C=C/1C [Everolimus] | ≤ 80 | ≤ 80 | ≤ 80 | ≤ 80 |  |  | 
C[C@@H]1C[C@H]2[C@@H]3CCC4=CC(=O)C=C[C@]4(C)[C@@]3(F)[C@@H](O)C[C@]2(C)[C@H]1C(=O)CO [Desoximetasone] | ≤ 80 | ≤ 80 | ≤ 80 | ≤ 80 |  |  | 
COc1c(C)c2c(c(O)c1C/C=C(\C)CCC(=O)OCCN1CCOCC1)C(=O)OC2 [Mycophenolate Mofetil] | ≤ 80 | ≤ 80 | ≤ 80 | ≤ 80 |  |  | 
C[C@H]1C[C@H]2[C@@H]3CCC4=CC(=O)C=C[C@]4(C)[C@@]3(F)[C@@H](O)C[C@]2(C)[C@@]1(O)C(=O)CO [Betamethasone] | ≤ 80 | ≤ 80 | ≤ 80 |  |  |  | 
CC(=O)N1CCN(c2ccc(OCC3COC(Cn4ccnc4)(c4ccc(Cl)cc4Cl)O3)cc2)CC1 (centres unmarked) [Ketoconazole] |  |  | ≤ 80 |  |  |  | 

SMILES | activity at 0.1 µM [%] | activity at 1 µM [%] | activity at 10 µM [%] | activity at 0.01 µM [%] | activity at 0.001 µM [%] | activity at 10 pM (agent 10 pM) [%] | activity at 1 pM (agent 1 pM) [%]
COc1c(C)c2c(c(O)c1C/C=C(\C)CCC(=O)O)C(=O)OC2 [Mycophenolic Acid] | ≤ 80 | ≤ 80 | ≤ 80 | ≤ 80 |  |  | 
Cc1ccc(O)c([C@H](CCN(C(C)C)C(C)C)c2ccccc2)c1 [Tolterodine Tartrate] |  | ≤ 80 | ≤ 80 | ≤ 80 | ≤ 80 |  | 
CN1C[C@H](C(=O)N[C@]2(C)O[C@@]3(O)[C@@H]4CCCN4C(=O)[C@H](Cc4ccccc4)N3C2=O)C[C@@H]2c3cccc4[nH]cc(c34)C[C@H]21 [Dihydroergotamine Mesylate] |  |  | ≤ 80 |  |  |  | 
CO[C@H]1/C=C/O[C@@]2(C)Oc3c(C)c(O)c4c(O)c(c(/C=N/N5CCN(C6CCCC6)CC5)c(O)c4c3C2=O)NC(=O)/C(C)=C\C=C\[C@H](C)[C@H](O)[C@@H](C)[C@@H](O)[C@@H](C)[C@H](OC(C)=O)[C@@H]1C [Rifapentine] |  | ≤ 80 |  |  |  |  | 
O=C(O)c1ccc(-n2nc(-c3ccccc3O)nc2-c2ccccc2O)cc1 [Deferasirox] |  |  | ≤ 80 |  |  |  | 
CCCC1O[C@@H]2C[C@H]3[C@@H]4CCC5=CC(=O)C=C[C@]5(C)[C@H]4[C@@H](O)C[C@]3(C)[C@]2(C(=O)CO)O1 (some centres unmarked) [Budesonide] | ≤ 80 | ≤ 80 | ≤ 80 | ≤ 80 | ≤ 80 |  | 
C[C@]12CC[C@@H]3c4ccc(O)cc4C[C@@H](CCCCCCCCC[S+]([O-])CCCC(F)(F)C(F)(F)F)[C@H]3[C@@H]1CC[C@@H]2O (some centres unmarked) [Fulvestrant] | ≤ 80 | ≤ 80 | ≤ 80 | ≤ 80 |  |  | 
CC(=O)[C@@]1(O)CC[C@H]2[C@@H]3C[C@H](C)C4=CC(=O)C=C[C@]4(C)[C@@]3(F)[C@@H](O)C[C@@]21C [Fluorometholone] | ≤ 80 | ≤ 80 | ≤ 80 |  |  |  | 
CC[C@@H]1/C=C(\C)C[C@H](C)C[C@H](OC)[C@H]2O[C@@](O)(C(=O)C(=O)N3CCCC[C@H]3C(=O)O[C@H](/C(C)=C/[C@@H]3CC[C@H](Cl)[C@H](OC)C3)[C@H](C)[C@@H](O)CC1=O)[C@H](C)C[C@@H]2OC [Pimecrolimus] |  | ≤ 80 | ≤ 80 | ≤ 80 |  |  | 
O=C1CCc2ccc(OCCCCN3CCN(c4cccc(Cl)c4Cl)CC3)cc2N1 [Aripiprazole] |  |  | ≤ 80 |  |  |  | 
CC(=O)OCC(=O)[C@@]12OC3(CCCC3)O[C@@H]1C[C@H]1[C@@H]3CCC4=CC(=O)C=C[C@]4(C)[C@@]3(F)[C@@H](O)C[C@@]12C [Amcinonide] | ≤ 80 | ≤ 80 | ≤ 80 | ≤ 80 |  |  | 
CC1(C)O[C@@H]2C[C@H]3[C@@H]4C[C@H](F)C5=CC(=O)C=C[C@]5(C)[C@@]4(F)[C@@H](O)C[C@]3(C)[C@]2(C(=O)CO)O1 [Fluocinolone Acetonide] | ≤ 80 | ≤ 80 | ≤ 80 | ≤ 80 |  | ≤ 80 | 
C[C@@H]1C[C@H]2[C@@H]3CCC4=CC(=O)C=C[C@]4(C)[C@@]3(F)[C@@H](O)C[C@]2(C)[C@@]1(O)C(=O)CO [Dexamethasone] | ≤ 80 | ≤ 80 | ≤ 80 | ≤ 80 |  |  | 
CCC(=O)O[C@]1(C(=O)CCl)[C@@H](C)C[C@H]2[C@@H]3CCC4=CC(=O)C=C[C@]4(C)[C@@]3(F)[C@@H](O)C[C@@]21C [Clobetasol Propionate] | ≤ 80 | ≤ 80 | ≤ 80 | ≤ 80 |  |  | ≤ 80
CN1CC2c3ccccc3Oc3ccc(Cl)cc3C2C1 (centres unmarked) [Asenapine Maleate] |  |  | ≤ 80 |  |  |  | 
C[C@@H]1C[C@H]2[C@@H]3CCC4=CC(=O)C=C[C@]4(C)[C@@]3(Cl)[C@@H](O)C[C@]2(C)[C@@]1(OC(=O)c1ccco1)C(=O)CCl [Mometasone Furoate] | ≤ 80 | ≤ 80 | ≤ 80 | ≤ 80 |  |  | 
CC1(C)O[C@@H]2C[C@H]3[C@@H]4CCC5=CC(=O)CC[C@]5(C)[C@@]4(F)[C@@H](O)C[C@]3(C)[C@]2(C(=O)CCl)O1 [Halcinonide] | ≤ 80 | ≤ 80 | ≤ 80 | ≤ 80 |  |  | 
CCC(=O)OCC(=O)[C@@]1(OC(=O)CC)[C@@H](C)C[C@H]2[C@@H]3CCC4=CC(=O)C=C[C@]4(C)[C@@]3(Cl)[C@@H](O)C[C@@]21C [Beclomethasone Dipropionate] | ≤ 80 | ≤ 80 | ≤ 80 |  |  |  | 
